Results taken from patent US20250009844A1, “MATURATION OF MUCOSAL DEFENSE AND GUT/LUNG FUNCTION IN THE PRETERM INFANT” (Novozymes A/S, priority 2017, published 2025).
“Also recorded” adds a separate entry of the source. No end group written: not given here.

Key:
PBMC cells = assay: PBMC cell viability, Alamar Blue, 24 hours (Example 8); type: cell-based, human; conditions: 1, 10 and 40 μg/ml, 0.6 and 20.0 pg/ml LPS
Procedure: FIG. 39. Cell viability of PBMC cells following exposure for 24 hours to Alamar Blue and HD5, hBD-1, hBD-2, hBD-3 and hBD-4 at concentrations of 1, 10 and 40 μg/ml.
PBMC cell viability following exposure for 24 hours to Alamar Blue and HD5,hBD-1, hBD-2, hBD-3 and hBD-4 at concentrations of 1, 10 and 40 μg/ml at 0.6 and 20.0 pg/ml LPS respectively (FIG. 39).

SCID mice = assay: Therapeutic, murine, 14 weeks, CD4+CD25+ T cell transfer induced colitis model (Example 4); type: in vivo
Description: Treatment regime: 70 female BALB/c mice housed in groups of five per cage were allocated to 7 different treatment groups. Colitis was induced in SCID mice by transplantation of CD4+CD25 Tcells from BALB/c mice. Lymphocytes isolated from spleen and lymph nodes from BALB/c mice were subjected to negative selection of CD4+Tcells. Afterwards, CD4+CD25+cells were positively isolated by binding to the beads from the CD4+Tcell suspensions and the CD4+CD25—were collected from the supernatant. The animals were treated with hBD-2, 0.1 mg/kg s.c. once daily 86consecutive days from day 7 (OD); 1 mg/kg s.c. OD or 3 mg/kg s.c. OD;with mouse anti TNFa 100 μg/mouse s.c. twice weekly (enbrel); with dexamethasone 0.3 mg/kg intraperitoneally OD (dex); with PBS s.c. as vehicle from day 7 and 86 consecutive days (vehicle) or sham treated (sham).
Treatment groups: • 1. 0.1 mg/kg hBD-2, once daily subcutaneously (n=11) • 2. 1 mg/kg hBD-2, once daily subcutaneously (n=11) • 3. 3 mg/kg hBD-2, once daily subcutaneously (n=11) • 4. PBS (hBD-2 vehicle), once daily subcutaneously (n=11) • 5. 0.3 mg/kg Dexamethasone, once daily intraperitoneally (n=11) • 6. 100 μg/mouse soluble human 75-kilodalton TNF receptor linked to Fc portion of IgG1 (Enbrel), twice a week subcutaneously (n=11) • 7. Sham treated group (n=6)
Clinical assessment was based on body weight loss, stool consistency and presence of blood per rectum. The animals were sacrificed on day 95 and colon removed for assessment of weight and myeloperoxidase activity.

neonatal rat model = conditions: cited from earlier work
[1] = tested on: gut epithelial cell lines; conditions: cited from earlier work
[2] = tested on: bacteria localization at the surface of the intestinal mucosa; assay: Localization of bacteria by FISH with mucin immunostaining, lysis zone (Example 14); type: in vivo; conditions: orally administered; compared with mice on a low fat or western diet
Procedure: Immunostaining of mucins and localization of bacteria by FISH Mucus immunostaining was paired with fluorescent in situ hybridization (FISH), as previously described in order to analyze bacteria localization at the surface of the intestinal mucosa. Briefly, colonic tissues (proximal colon, 2nd cm from the cecum) without fecal material were placed in methanol-Carnoy's fixative solution (60% methanol, 30% chloroform, 10% glacial acetic acid) for a minimum of 3 hours at room temperature. Tissues were then washed in methanol 2×30 min, ethanol 2×15 min, ethanol/xylene (1:1), 15 min and xylene 2×15 min, followed by embedding in Paraffin with a vertical orientation. Five μm sections were performed and dewax by preheating at 60° C. for 10 min, followed by xylene 60° C. for 10 min, xylene for 10 min and 99.5% ethanol for 10 minutes. Hybridization step was performed at 50° C. overnight with EUB338 probe (5′-GCTGCCTCCCGTAGGAGT-3′, with a 5′ labeling using Alexa 647) diluted to a final concentration of 10 μg/mL in hybridization buffer (20 mM Tris-HCl, pH 7.4, 0.9 M NaCl, 0.1% SDS, 20% formamide). After washing 10 min in wash buffer (20 mM Tris-HCl, pH 7.4, 0.9 M NaCl) and 3×10 min in PBS, PAP pen (Sigma-Aldrich) was used to mark around the section and block solution (5% fetal bovine serum in PBS) was added for 30 min at 4° C. […]

[3] = tested on: microbiota of the intestine; assay: Prophylactic high fat diet murine model, 16S microbial analyses (Example 1); type: in vivo, mice
Description: The overall experimental design is shown in FIG. 1, top panel “Prophylactic study”. Mice: Mice were housed in trios, 4 cages per group. Feed intake was registered daily just before lights were turned off at 6 pm. Individual mice were subjected to experimental procedures in altered order both group and cage wise. Mice were kept at room temperature under a 12-hour light/dark cycle at SPF standard conditions. Diets: For dosing, the average weight was estimated to be 25 grams per mouse. Mice eat approximately 3 grams of feed per mouse per day.
Treatment regime: Mice were fed either a high fat diet (HFD) or a low fat (LF) control diet. The HFD contained 4 subgroups; a) hBD-2, b) HD5, c) hBD-2/HD5 and d) standard HFD without supplementation of defensins. Defensin concentration was 1,2 mg hBD-2 per kg mouse per day. HD5 was given in equimolar concentration to hBD-2.
(§1) Microbial analyses were carried out to study the microbiota of the intestine. Longitudinal 16S characterization was conducted on 4 paired samples from 60 mice, 240 samples in total. Each mouse was sampled prior to diet change, 1 week post diet change, 4 weeks post diet change and at termination, thus ensuring a thorough characterization of the faecal microbiota as a result of defensin treatment.

[4] = tested on: microbiota of the intestine; assay: Therapeutic high fat diet model in diet-induced obese mice, 16S microbial analyses (Example 2); type: in vivo
Description: (§2) The overall design of the study is shown in FIG. 1, lower panel, “Therapeutic study”. Mice and diets. The experiment elucidates the effect of hBD-2 and HD5 on the microbiota in diet-induced obese mice. A run-in period of 13 weeks where mice were fed a very HFD (60% energy from fat) preceded the intervention. Only mice meeting the criteria of a minimum of 12 gram weight gain (approximately 50% of initial bodyweight) during the run-in period were included in the final analyses. […] They were exposed to all experimental tests, but excluded from the analyses.
(§3) Treatment regimen. Before the intervention all mice were MR scanned. Cages of mice were allocated to experimental groups based on their fat mass. All subsequent measures were paired with data from the same mouse before the intervention. A LFD (low fat diet) reference group was running in parallel. As controls for the intervention 2 additional groups were included: a) very HFD and b) LFD. Experimental mice stayed on the very HFD during the intervention. The mice were on the experimental diet for 10 weeks. They were co-housed throughout the experiment, 4 mice per cage, 3 cages per group. All tests ran over 3 days, 1 cage per group per day.
as §1

BALB/c mice = assay: Murine model of acute graft versus host disease, oral HD5 (Example 13); type: in vivo
Procedure: Treatment regime: 22 female BALB/c mice were irradiated with 4.5 Gy (2×498 sec) at intervals of at least 4 hours on day 0. Bone marrow was harvested: hind limbs harvested from 2 female WT C57BL/6 mice aseptically. Skeletal muscle was removed and epiphysis cut away. Lumen of bone flushed with PBS and cells pelleted and taken up. Harvest of T-cells: spleens from 2 female WT C57BL/6 mice were meshed through a […] cell strainer into a PBS filled dish. Cells were taken up in PBS and transferred into a 50 mL falcon tube and spun down. Cells were taken up in 1 mL PBS and 20 μL of CD4 microbead +20 μL CD8 microbeads per spleen added for incubation for 20 min at 4 degrees C. Cells were washed with PBS and applied to MACS separation in order to positively select CD4+ and CD8+ cells. Positively selected T-cells were counted and taken up. Transplantation: directly after the second irradiation, all WT BALB/c recipient mice were injected with 5×1.000.000 BM cells (50 μL) i.v. into the retroorbital venous plexus under isoflurane anesthesia. 22 BALB/c mice were treated with 1.2 mg of HD5/kg BW/day; 1.2 mg of hBD-2/kg BW/day or 100 μL of PBS per day vial oral gavage from day 0-10.
Survival was monitored for 60 days.

[5] = Therapeutic high fat diet model in diet-induced obese mice, weight and fat percentage (Example 2); type: in vivo
Description: as §2, §3

[6] = same three dosing regimens, sacrifice day 95

Question: Which “Toxicity (PBMC cell viability)” value (PBMC cells) does the source give for “human beta defensin 1 (DHYNCVSSGGQCLYSACPIFTKIQGTCYRGKAKCCK; ends and bridges not checked; cysteine pairing not given here; listed as Homo sapiens) [hBD-1]” here?
Answer: not toxic irrespectively of concentration; also recorded: not to be toxic

Question: For “human beta defensin 4 (ELDRICGYGTARCRKKCRSQEYRIGRCPNTYACCLRK; ends and bridges not checked; cysteine pairing not given here; listed as Homo sapiens) [hBD-4]”, which “Toxicity (PBMC cell viability)” value (PBMC cells) is on record?
Answer: moderately increasing toxicity; also recorded: moderately toxic

Question: Which “Clinical score (body weight loss, stool consistency, blood per rectum)” value (SCID mice; hBD-2 1 mg/kg s.c. OD, Dexamethasone 0.3 mg/kg i.p. OD, Enbrel 100 μg/mouse s.c. twice weekly, from day 7) does the source give for Enbrel [reference compound] here?
Answer: statistically significant and similar effect on clinical score

Question: And the Colon weight (SCID mice; [6])?
Answer: statistically significant and similar effect on colon weight

Question: What about the “Myeloperoxidase activity in intestinal tissue” value (SCID mice; [6]) of the same substance?
Answer: statistically significant and similar effect

Question: With “human beta defensin 3 (GIINTLQKYYCRVRGGRCAVLSCLPKEEQIGKCSTRGRKCCRRK; ends and bridges not checked; cysteine pairing not given here; listed as Homo sapiens) [hBD-3]” as the substance, how does the “Incidence of NEC” value (neonatal rat model) read?
Answer: decrease the incidence of NEC

Question: What about the “Toxicity (PBMC cell viability)” value (PBMC cells) of the same substance?
Answer: profoundly increasing toxicity; also recorded: toxic

Question: And the Toxicity [1]?
Answer: not to be toxic

Question: Which results are given for “human intestinal alpha defensin 5 (ATCYCRTGRCATRESLSGVCEISGRLYRLCCR; listed as Homo sapiens) [HD5]”?
Answer: Distance from the intestinal lining to bacterial population (lysis zone) [2]: profound effect on the distance; Microbial presence and abundance (unifrac, genus analysis) ([3]; prophylactic oral defensin in HFD, 1,2 mg hBD-2 per kg per day, HD5 equimolar, mix 50%+50%): affected primarily the microbial abundance; Abundance of Allobaculum ([3]; small intestine, prophylaxis, p<0.02): statistically significant increase of abundance of Allobaculum; Abundance of Alloprevotella ([4]; colon, therapeutic intervention, HD5 p<0.02): increased the abundance of Alloprevotella statistically significantly; Relative abundance of Bifidobacteriaceae ([4]; small intestine, hBD-2 p<0.0001): trend towards HD5 increasing the abundance of Bifidobacteriaceae; Toxicity (PBMC cell viability) (PBMC cells): not toxic irrespectively of concentration; also recorded: not to be toxic; Animals that had died by day 60 (BALB/c mice; 1.2 mg/kg BW/day oral gavage day 0-10, HD5 group of 8, PBS six out of eight died): 2; Mortality (BALB/c mice; 22 mice, oral treatment for 10 days): significant reduction of mortality; Fat percentage ([5]; 4 weeks after dietary change, HFD plus HD5 vs HFD control, p=0.009): significantly lower fat percentage; Fat percentage, course ([5]; HFD plus HD5 group after dietary intervention): tendency of decreasing fat percentage; Weight gain ([5]; after dietary intervention, HFD plus HD5 vs HFD control, p<0.05): gained significantly less weight than the HFD control
